The source of these data is patent publication US20120121705A1, “Pharmaceutical Or Cosmetic Or Dietetic Composition Suitable For Promoting A Hair Pigmentation Effect” (priority 2009, published 2012).

The experiment relates to hair follicle pigmentation unit. The experiment can be described thus: Hair pigmentation: quantitative Masson-Fontana melanin staining in organ-cultured human scalp skin / hair follicles. Format: cell-based. The following applies: spermidine 3HCl 0.1 μM, given at each medium change (every 48 hours), 6 days organ culture; compared with vehicle; FIG. 1 and FIG. 2. As for the experimental part: The skin of normal human scalp was taken from a person who had undergone a routine face lifting surgery after receiving the informed consent. All the experiments were carried out according to the Helsinki principles, with the ethical committee's approval.
The tissues subject to biopsy with 3-4 mm cylindrical scalpel were cultured at 37° C. for 6 days in Williams E medium (Biochrom, Cambridge, U.K.), integrated with 100 IU ml^−1 penicillin, 10 μg ml^−1 streptomycin (Gibco, Karlsruhe, Germany), 10 μg ml^−1 insulin (Sigma, Taukfirchen, Germany), 10 ng ml^−1 hydrocortisone (Sigma) and 2 mmol L^−1 (L-glutamine (Invitrogen, Paisley, U.K.). […]
The Masson-Fontana staining was carried out for the histochemical display of melanin on frozen sections. Melanin was stained in the form of brown granules and the pigmentation level was determined through the quantitative Masson-Fontana technique (Ito N., Ito T., Kromminga A., Bettermann A., Takigawa M., Kees F., Straub R. H., and Paus R. (2005): Human hair follicles display a functional equivalent of the hypothalamic-pituitary-adrenal axis and synthesize cortisol. FASEB J 19, 1332-4). […]
The staining intensity was analyzed in a defined reference region of the hair follicle pigmentation unit using the ImageJ software (National Institute of Health). […]

Each structure is given as a SMILES string.

As for `NCCCCNCCCN` [spermidine, N-(3-aminopropyl)butan-1,4-diamine], the “pigmentation intensity in hair follicles (melanin, Masson-Fontana staining)” value is reported as “increase of melanin”.
